{"source": "patent US20090142429A1", "about": "“SILICIBACTER SP. STRAIN USEFUL FOR GENETIC TRANSFORMATION OF MARINE ALGAE AND PRODUCTION OF ANTIBIOTIC AGENTS” (UNIVERSITY OF MARYLAND BIOTECHNOLOGY INSTITUTE, priority 2005, published 2009)", "key": {"[1]": {"system": "Silicibacter sp. strain TM1040", "test": "Chemotaxis plate screening assay (change in motile colony morphology); for Change in morphology with carbon source Alanine: key: −: minus indicates no change compared to distilled water or no attractant controls; +: either one or two pluses indicates moderate to strong alteration in motile colony phenotype (respectively); ++: either one or two pluses indicates moderate to strong alteration in motile colony phenotype (respectively); for Change in morphology with carbon source Glucose: key: −: minus indicates no change compared to distilled water or no attractant controls; +: either one or two pluses indicates moderate to strong alteration in motile colony phenotype (respectively); ++: either one or two pluses indicates moderate to strong alteration in motile colony phenotype (respectively); for Change in morphology with carbon source Glycerol: key: −: minus indicates no change compared to distilled water or no attractant controls; +: either one or two pluses indicates moderate to strong alteration in motile colony phenotype (respectively); ++: either one or two pluses indicates moderate to strong alteration in motile colony phenotype (respectively); for Response: change in motile colony morphology of TM1040 in response to attractants, compared to the control: key: −: minus indicates no change compared to distilled water or no attractant controls; +: either one or two pluses indicates moderate to strong alteration in motile colony phenotype (respectively); ++: either one or two pluses indicates moderate to strong alteration in motile colony phenotype (respectively)", "assay_type": "cell-based", "protocol": "Following 36 h of incubation, a putative attractant was placed approximately 5 cm from the site of inoculation (or 2.5 cm in front of the periphery of motile cells). Possible chemoattractant compounds were administered as either a sterile solid or concentrated stock solutions. The cells were further incubated for 16 h to allow for additional outward movement, at which time measurement of diameter, shape, and chemotaxis rings internal to the motile colony were made.\n[…] Bacteria inoculated into the center of the agar consume nutrients and create a concentration gradient that increases outward from the point of inoculation. The bacteria sense the increasing gradient and swim outwards, seeking higher concentrations of nutrients, which is manifested as a symmetrical “motile” colony. If an attractant is placed at a short distance in front of the advancing motile colony, it forms a second gradient moving towards the oncoming cells that will affect the symmetry of the colony by reducing the net outward swimming of the bacteria."}, "[2]": {"test": "Destruction of DMSP by heating (GC-FID)", "assay_type": "physicochemical", "protocol": "The concentration of DMSP in 1 ml-samples of heated or boiled 200 μM DMSP and in heated and untreated P. piscicida homogenates was measured using gas chromatography with flame ionization detection, as previously described.\nDestruction of 200 μM DMSP in CB was assessed after heating the samples to either 80 or 100° C. for 15 min. At both temperatures, negligible (<2%) loss of DMSP was observed.\nAn alternative explanation for why heat reduced the chemoattractant quality of the homogenates is that heat acts indirectly through an intermediate to inactivate DMSP. This hypothesis predicts that the concentration of DMSP decreases when a homogenate is heated. The DMSP concentration in untreated and heated homogenates was measured. In untreated P. piscicida homogenates the mean concentration of DMSP was 8.21±1.2 μM. After the homogenate was heated, the concentration of DMSP fell below the level of detectability (<1 μM)."}, "[3]": {"system": "Silicibacter sp. strain TM1040", "test": "Capillary assay: reduction in chemotaxis toward P. piscicida homogenates by externally supplied attractant", "assay_type": "cell-based", "details": "for % Reduction in CFU per capillary compared to the control / No. of bacteria per capillary (CFU · 10^4), attractant added to external buffer: 200 μM attractant in external buffer; for No. of bacteria per capillary (CFU · 10^4), attractant added to external buffer: SD in parentheses", "protocol": "The capillary assay was also used to measure the reduction in chemotaxis through competition when a known attractant was supplied exogenously (i.e., outside the capillary). In this variation, the quantitative capillary method was used, but a known attractant was included in the CB used to suspend the washed cells. A capillary containing a mixture of potential chemoattractant molecules was then placed in the chamber and incubated as described earlier. At the completion of the assay, the percent reduction in chemotaxis was calculated using the following formula: % reduction=[1−(CFU ml^−1exogenous/CFU ml^−1control)]×(100).\nDinoflagellates and Rhodomonas sp. were grown to late exponential phase (ca. 10^5 to 10^6 cells per ml), and the cell density was measured using a Coulter Counter (model M/SZRII; Beckman Coulter). Dinoflagellates were harvested after starvation of the culture to remove Rhodomonas prey algae, which was confirmed by microscopy. The cell densities in P. piscicida and Rhodomonas cultures were normalized to 10^5 cells per ml, and each culture was then pelleted by centrifugation at 4,000×g and 4° C. for 10 min. The supernatant was removed, and the pellets were separately resuspended with either 1 ml of ice-cold distilled water or CB. The cells were homogenized by sonication (Sonic Dismembrator; Fisher), and cell disruption was assessed by microscopy. To examine the heat sensitivity of chemotaxis elicitors, an aliquot of each homogenate was heated to 80° C. for 15 min prior to the assay. All homogenates were then stored at −20° C. When required, the homogenates were thawed, held on ice, and used in the capillary assay as described."}, "[4]": {"system": "Silicibacter sp. strain TM1040", "test": "Quantitative capillary chemotaxis assay", "assay_type": "cell-based", "details": "pure compounds, FIG. 12; capillaries filled with 2 μM or 200 μM attractant", "from_the_text": "The cells were pelleted by centrifugation at 4,000×g in a tabletop centrifuge (Centra-CL2; International Equipment Company), the supernatant was discarded, and the pellet was resuspended in chemotaxis buffer (CB) (15 g of ASW, 6 g of Tris-HCl per liter [pH 7.6]) to the same OD. Five hundred microliters of washed cells was placed in one of the wells of the Palleroni chamber, followed by a 1-μl capillary (Microcaps; Drummond) filled with a putative attractant diluted in CB. This process was repeated for each of the four wells in the chamber. A capillary filled with CB only was included in each experiment as a negative control. Depending on the experiment, capillaries remained in the chambers for 0.5 to 2 h, after which time they were removed, and the contents of each capillary were serially diluted in CB. Final dilutions were then spread on HIASW agar plates and incubated for 16 h at 30° C. The concentration of TM1040 in each capillary was derived by counting the CFU on each plate and multiplying by the appropriate dilution factor. […]"}, "[5]": {"details": "heated (80° C. for 15 min) P. piscicida homogenate"}, "[6]": {"details": "untreated P. piscicida homogenate"}}, "note": "Where “and” joins values, the source holds several entries; their conditions need not be identical. Equal values may be shown once.", "data": [{"smiles": "C[S+](C)CCC(=O)[O-]", "note": "[DMSP, Dimethylsulfoniopropionate]", "values": [{"measurement": "Response: change in motile colony morphology of TM1040 in response to attractants, compared to the control", "setting": "[1]; BM glycerol motility agar", "result": "++"}, {"measurement": "chemotactic response of TM1040 in plate assay", "setting": "[1]; BM glycerol motility agar", "result": "marked deformation in the periphery of the motile colony"}, {"measurement": "Change in morphology with carbon source Alanine", "setting": "[1]; BM motility agar, alanine as single carbon source", "result": "+"}, {"measurement": "Change in morphology with carbon source Glucose", "setting": "[1]; BM motility agar, glucose as single carbon source", "result": "−"}, {"measurement": "Change in morphology with carbon source Glycerol", "setting": "[1]; BM motility agar, glycerol as single carbon source", "result": "++"}, {"measurement": "Change in morphology with carbon source Succinate", "setting": "[1]; BM motility agar, succinate as single carbon source", "result": "+"}, {"measurement": "loss of DMSP", "setting": "[2]; 200 μM DMSP in CB heated to either 80 or 100° C. for 15 min", "result": "< 2", "unit": "%"}, {"measurement": "concentration of DMSP in P. piscicida homogenates", "setting": "[2]; after the homogenate was heated, level of detectability", "result": "< 1", "unit": "µM"}, {"measurement": "mean concentration of DMSP in P. piscicida homogenates", "setting": "[2]; untreated homogenate", "result": "8.21 ± 1.2", "unit": "µM"}, {"measurement": "% Reduction in CFU per capillary compared to the control", "setting": "[3]; [5]", "result": "11% and 11.68%"}, {"measurement": "No. of bacteria per capillary (CFU · 10^4), attractant added to external buffer", "setting": "[3]; [5]", "result": "3.10 (±0.16) CFU · 10^4"}, {"measurement": "% Reduction in CFU per capillary compared to the control", "setting": "[3]; [6]", "result": "54% and 54.01%"}, {"measurement": "No. of bacteria per capillary (CFU · 10^4), attractant added to external buffer", "setting": "[3]; [6]", "result": "3.33 (±0.15) CFU · 10^4"}, {"measurement": "mean number of bacteria in the untreated capillaries", "setting": "[3]; untreated homogenate, attractant supplied externally in the buffer", "result": "3.33×10^4 CFU per ml"}, {"measurement": "response factor (mean)", "setting": "[4]", "result": 8.2}]}]}
